In the NIST ThermoML archive (doi:10.1021/je800527p):

Assay: mn = molality of the nth substance listed, in mol/kg
Conditions: 101 kPa, Liquid

N[C@@H](CC(=O)NCC(=O)O)C(=O)NCC(=O)O [L-aspartoylbisglycine] + O
Conditions	mass density [kg/m3]
288.15 K, m1 = 0.02634	1001.74
288.15 K, m1 = 0.03248	1002.34
288.15 K, m1 = 0.03979	1003.07
288.15 K, m1 = 0.04516	1003.6
288.15 K, m1 = 0.05155	1004.23
288.15 K, m1 = 0.05974	1005.03
288.15 K, m1 = 0.06457	1005.5
288.15 K, m1 = 0.06951	1005.98
298.15 K, m1 = 0.02287	999.295
298.15 K, m1 = 0.02484	999.489
298.15 K, m1 = 0.02795	999.79
298.15 K, m1 = 0.03159	1000.15
298.15 K, m1 = 0.0337	1000.35
298.15 K, m1 = 0.03757	1000.73
298.15 K, m1 = 0.04282	1001.24
298.15 K, m1 = 0.0486	1001.8
298.15 K, m1 = 0.05367	1002.29
298.15 K, m1 = 0.05892	1002.8
303.15 K, m1 = 0.02228	997.821
303.15 K, m1 = 0.02508	998.095
303.15 K, m1 = 0.02783	998.36
303.15 K, m1 = 0.0319	998.757
303.15 K, m1 = 0.03772	999.316
303.15 K, m1 = 0.0429	999.814
303.15 K, m1 = 0.04971	1000.47
303.15 K, m1 = 0.0554	1001.02
303.15 K, m1 = 0.06187	1001.64
313.15 K, m1 = 0.02228	994.368
313.15 K, m1 = 0.02508	994.635
313.15 K, m1 = 0.02783	994.898
313.15 K, m1 = 0.0319	995.29
313.15 K, m1 = 0.03772	995.842
313.15 K, m1 = 0.0429	996.336
313.15 K, m1 = 0.04971	996.987
313.15 K, m1 = 0.0554	997.526
313.15 K, m1 = 0.06187	998.14

NCC(=O)N[C@@H](CS)C(=O)NCC(=O)O [glycyl-L-cysteinylglycine] + O
Conditions	mass density [kg/m3]
288.15 K, m1 = 0.01633	1000.63
288.15 K, m1 = 0.02087	1001.05
288.15 K, m1 = 0.02582	1001.51
288.15 K, m1 = 0.02984	1001.88
288.15 K, m1 = 0.03474	1002.34
288.15 K, m1 = 0.0395	1002.78
288.15 K, m1 = 0.04097	1002.91
288.15 K, m1 = 0.04442	1003.23
288.15 K, m1 = 0.04953	1003.71
303.15 K, m1 = 0.02103	997.568
303.15 K, m1 = 0.02497	997.92
303.15 K, m1 = 0.02788	998.184
303.15 K, m1 = 0.03046	998.417
303.15 K, m1 = 0.03394	998.731
303.15 K, m1 = 0.0374	999.043
303.15 K, m1 = 0.04008	999.279
303.15 K, m1 = 0.04358	999.593
303.15 K, m1 = 0.05003	1000.17
303.15 K, m1 = 0.05296	1000.43
313.15 K, m1 = 0.02094	994.099
313.15 K, m1 = 0.03109	995.001
313.15 K, m1 = 0.03597	995.437
313.15 K, m1 = 0.03941	995.739
313.15 K, m1 = 0.04508	996.242
313.15 K, m1 = 0.05002	996.672
313.15 K, m1 = 0.05218	996.867
313.15 K, m1 = 0.05751	997.331

NCC(=O)N[C@@H](Cc1cnc[nH]1)C(=O)NCC(=O)O [glycyl-L-histidylglycine] + O
Conditions	mass density [kg/m3]
288.15 K, m1 = 0.004019	999.501
288.15 K, m1 = 0.00501	999.6
288.15 K, m1 = 0.006072	999.708
288.15 K, m1 = 0.007051	999.802
288.15 K, m1 = 0.008127	999.911
288.15 K, m1 = 0.00901	1000
288.15 K, m1 = 0.01012	1000.11
288.15 K, m1 = 0.01088	1000.19
288.15 K, m1 = 0.01205	1000.31
298.15 K, m1 = 0.004009	997.442
298.15 K, m1 = 0.007226	997.762
298.15 K, m1 = 0.008041	997.838
298.15 K, m1 = 0.00901	997.939
298.15 K, m1 = 0.01009	998.038
298.15 K, m1 = 0.01109	998.142
298.15 K, m1 = 0.01227	998.254
303.15 K, m1 = 0.00404	996.046
303.15 K, m1 = 0.00498	996.138
303.15 K, m1 = 0.006103	996.247
303.15 K, m1 = 0.00711	996.346
303.15 K, m1 = 0.007975	996.427
303.15 K, m1 = 0.01106	996.73
303.15 K, m1 = 0.01225	996.842
313.15 K, m1 = 0.005108	992.711
313.15 K, m1 = 0.006051	992.804
313.15 K, m1 = 0.006936	992.89
313.15 K, m1 = 0.0082	993.012
313.15 K, m1 = 0.01022	993.207
313.15 K, m1 = 0.01138	993.309
313.15 K, m1 = 0.01232	993.4

NCC(=O)N[C@@H](CO)C(=O)NCC(=O)O [glycyl-L-serylglycine] + O
Conditions	mass density [kg/m3]
288.15 K, m1 = 0.03014	1001.82
288.15 K, m1 = 0.03542	1002.28
288.15 K, m1 = 0.04107	1002.79
288.15 K, m1 = 0.04543	1003.18
288.15 K, m1 = 0.05019	1003.61
288.15 K, m1 = 0.05524	1004.05
288.15 K, m1 = 0.06026	1004.51
288.15 K, m1 = 0.06526	1004.95
298.15 K, m1 = 0.025	999.264
298.15 K, m1 = 0.0306	999.768
298.15 K, m1 = 0.03505	1000.16
298.15 K, m1 = 0.04024	1000.61
298.15 K, m1 = 0.04521	1001.05
298.15 K, m1 = 0.05166	1001.62
298.15 K, m1 = 0.05493	1001.9
298.15 K, m1 = 0.0598	1002.34
298.15 K, m1 = 0.06564	1002.84
303.15 K, m1 = 0.02533	997.881
303.15 K, m1 = 0.02992	998.289
303.15 K, m1 = 0.03496	998.733
303.15 K, m1 = 0.0453	999.64
303.15 K, m1 = 0.05003	1000.05
303.15 K, m1 = 0.0555	1000.53
303.15 K, m1 = 0.06095	1001
303.15 K, m1 = 0.06473	1001.34
313.15 K, m1 = 0.02969	994.793
313.15 K, m1 = 0.03329	995.098
313.15 K, m1 = 0.03976	995.655
313.15 K, m1 = 0.04401	996.025
313.15 K, m1 = 0.04969	996.506
313.15 K, m1 = 0.05419	996.891
313.15 K, m1 = 0.05935	997.32
313.15 K, m1 = 0.06498	997.808

NCC(=O)N[C@@H](Cc1ccc(O)cc1)C(=O)NCC(=O)O [glycyl-L-tyrosylglycine] + O
Conditions	mass density [kg/m3]
288.15 K, m1 = 0.01708	1000.85
288.15 K, m1 = 0.01938	1001.08
288.15 K, m1 = 0.02117	1001.26
288.15 K, m1 = 0.023	1001.45
288.15 K, m1 = 0.02384	1001.53
288.15 K, m1 = 0.02504	1001.65
288.15 K, m1 = 0.02575	1001.72
288.15 K, m1 = 0.02705	1001.85
288.15 K, m1 = 0.0279	1001.95
288.15 K, m1 = 0.02909	1002.06
303.15 K, m1 = 0.01685	997.325
303.15 K, m1 = 0.01781	997.42
303.15 K, m1 = 0.019	997.535
303.15 K, m1 = 0.02087	997.719
303.15 K, m1 = 0.02301	997.932
303.15 K, m1 = 0.02396	998.023
303.15 K, m1 = 0.02501	998.127
303.15 K, m1 = 0.02604	998.224
303.15 K, m1 = 0.02701	998.323
303.15 K, m1 = 0.02792	998.415
303.15 K, m1 = 0.02882	998.496
313.15 K, m1 = 0.017	993.889
313.15 K, m1 = 0.01785	993.972
313.15 K, m1 = 0.01889	994.065
313.15 K, m1 = 0.02086	994.259
313.15 K, m1 = 0.0216	994.332
313.15 K, m1 = 0.02288	994.456
313.15 K, m1 = 0.02376	994.546
313.15 K, m1 = 0.02492	994.655
313.15 K, m1 = 0.02586	994.742
313.15 K, m1 = 0.02688	994.842
313.15 K, m1 = 0.02763	994.913
313.15 K, m1 = 0.02902	995.047
